Laboratory results: patent US6737383B1, “Herbicidal oxadiazolidines” (priority 1999, dated 2004)

What was measured:
Johnson grass = test: Test D Johnson grass; assay type: in vivo, Sorghum halepense; details: Postemergence, 0 to 100 scale
Green foxtail [1] = test: Test D green foxtail; assay type: in vivo; details: Rate 250 g/ha; Postemergence; 0 to 100 scale
large crabgrass = test: Test D large crabgrass; assay type: in vivo, Digitaria sanguinalis; details: Postemergence, 0 to 100 scale
surinam grass = test: Test D surinam grass; assay type: in vivo, Brachiaria decumbens; details: Postemergence, 0 to 100 scale
Green foxtail [2] = test: Test D green foxtail; assay type: in vivo; details: Postemergence, 0 to 100 scale, 0 no injury, 100 complete control
purple nutsedge = test: Test D purple nutsedge; assay type: in vivo, Cyperus rotundus; details: Postemergence, 0 to 100 scale
dallisgrass = test: Test D dallisgrass; assay type: in vivo, Paspalum dilatatum; details: Postemergence, 0 to 100 scale
guineagrass = test: Test D guineagrass; assay type: in vivo, Panicum maximum; details: Postemergence, 0 to 100 scale
[3] = Rate 16 g/ha, 0 no injury, 100 complete control
[4] = Rate 32 g/ha, 0 no injury, 100 complete control
[5] = Rate 64 g/ha, 0 no injury, 100 complete control
[6] = Rate 125 g/ha, 0 no injury, 100 complete control

CC(C)N(C(=O)n1oc(=O)n(C2CCC2)c1=O)c1ccc(Cl)cc1 [Compound 349]
Plant response rating, Johnsongrass (Johnson grass; [3]): 0
Plant response rating, Johnsongrass (Johnson grass; [4]): 0
Plant response rating, Johnsongrass (Johnson grass; [5]): 0
Plant response rating, Johnsongrass (Johnson grass; [6]): 10
Plant response rating, Johnsongrass (Johnson grass; Rate 250 g/ha): 40
Plant response rating, Green foxtail (Green foxtail [1]): 100
Plant response rating, Large crabgrass (large crabgrass; [3]): 0
Plant response rating, Large crabgrass (large crabgrass; [4]): 0
Plant response rating, Large crabgrass (large crabgrass; [5]): 70
Plant response rating, Large crabgrass (large crabgrass; [6]): 100
Plant response rating, Large crabgrass (large crabgrass; Rate 250 g/ha): 100
Plant response rating, Surinam grass (surinam grass; [3]): 0
Plant response rating, Surinam grass (surinam grass; [4]): 0
Surinam grass plant response rating (surinam grass; [5]): 0
Surinam grass plant response rating (surinam grass; [6]): 10
Plant response rating, Surinam grass (surinam grass; Rate 250 g/ha): 60
Plant response rating, Green foxtail (Green foxtail [2]; Rate 64 g/ha): 10
Plant response rating, Green foxtail (Green foxtail [2]; Rate 125 g/ha): 80
Plant response rating, Purple nutsedge (purple nutsedge; [3]): 0
Plant response rating, Purple nutsedge (purple nutsedge; [4]): 0
Purple nutsedge plant response rating (purple nutsedge; [5]): 0
Purple nutsedge plant response rating (purple nutsedge; [6]): 0
Plant response rating, Purple nutsedge (purple nutsedge; Rate 250 g/ha): 0
Plant response rating, Dallisgrass (dallisgrass; [3]): 0
Plant response rating, Dallisgrass (dallisgrass; [4]): 0
Plant response rating, Dallisgrass (dallisgrass; [5]): 0
Plant response rating, Dallisgrass (dallisgrass; [6]): 60
Plant response rating, Dallisgrass (dallisgrass; Rate 250 g/ha): 90
Plant response rating, Guineagrass (guineagrass; [3]): 0
Plant response rating, Guineagrass (guineagrass; [4]): 0
Guineagrass plant response rating (guineagrass; [5]): 0
Plant response rating, Guineagrass (guineagrass; [5]): 20
Plant response rating, Guineagrass (guineagrass; [6]): 0
Plant response rating, Guineagrass (guineagrass; Rate 250 g/ha): 40
